{
  "source": "paper PMC2806265",
  "about": "“Divergence of allosteric effects of rapacuronium on binding and function of muscarinic receptors” (BMC Pharmacology, 2009)",
  "key": {"M4 muscarinic receptor [1]": {"target": "T1, M4 muscarinic receptor (Homo sapiens, UniProt P08173)", "T1 sequence (P08173 1-479)": "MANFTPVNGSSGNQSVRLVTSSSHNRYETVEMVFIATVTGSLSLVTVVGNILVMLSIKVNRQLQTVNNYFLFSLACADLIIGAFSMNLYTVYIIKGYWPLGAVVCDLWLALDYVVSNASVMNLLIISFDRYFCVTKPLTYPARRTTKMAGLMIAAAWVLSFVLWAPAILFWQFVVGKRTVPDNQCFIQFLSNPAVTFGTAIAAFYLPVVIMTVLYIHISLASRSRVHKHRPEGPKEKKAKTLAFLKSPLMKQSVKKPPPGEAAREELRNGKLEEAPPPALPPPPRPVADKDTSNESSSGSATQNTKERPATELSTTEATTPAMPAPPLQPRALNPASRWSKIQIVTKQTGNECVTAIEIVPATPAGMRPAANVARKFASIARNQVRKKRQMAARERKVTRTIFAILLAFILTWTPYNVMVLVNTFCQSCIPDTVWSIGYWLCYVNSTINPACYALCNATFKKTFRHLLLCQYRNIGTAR", "experiment": "[3H]NMS dissociation", "details": "+ 100 μM rapacuronium", "from_the_text": "y, radioligand binding at time x normalized to binding at time 0; koff1 and koff2, dissociation rate constants; f2, fraction of binding site with dissociation rate constant koff2. When both Eq. 7a and 7b were fitted to data the better fit was chosen based on sum of squares F-test and runs test."}, "M4 muscarinic receptor [2]": {"target": "T1, M4 muscarinic receptor", "experiment": "Effect of rapacuronium on 1 nM [3H]NMS binding", "parameters": "host or cells: CHO cells, stably transfected; membranes", "source_text": "(§1) Cooperativity factor greater than 1 denotes negative cooperativity and less than 1 positive cooperativity. Due to its log-normal error distribution factors of cooperativity are expressed as negative logarithms (pα) through the manuscript so negative values denotes negative cooperativity and positive value denotes positive cooperativity."}, "M5 muscarinic receptor": {"target": "T2, M5 muscarinic receptor (Homo sapiens, UniProt P08912)", "T2 sequence (P08912 1-532)": "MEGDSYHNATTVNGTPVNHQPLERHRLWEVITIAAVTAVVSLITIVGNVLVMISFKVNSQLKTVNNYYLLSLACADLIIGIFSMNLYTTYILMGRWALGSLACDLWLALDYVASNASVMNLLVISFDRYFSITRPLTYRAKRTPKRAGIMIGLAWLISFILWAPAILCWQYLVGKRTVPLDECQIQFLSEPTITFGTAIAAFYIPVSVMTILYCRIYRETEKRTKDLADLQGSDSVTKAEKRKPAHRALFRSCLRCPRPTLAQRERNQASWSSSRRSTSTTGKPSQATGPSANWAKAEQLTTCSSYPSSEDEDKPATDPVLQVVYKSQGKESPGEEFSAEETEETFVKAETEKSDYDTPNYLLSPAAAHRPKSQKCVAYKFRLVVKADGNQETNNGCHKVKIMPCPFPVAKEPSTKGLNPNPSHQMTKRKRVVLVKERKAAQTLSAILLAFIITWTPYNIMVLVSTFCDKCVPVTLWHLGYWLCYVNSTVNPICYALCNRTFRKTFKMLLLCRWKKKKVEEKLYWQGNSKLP", "experiment": "Effect of rapacuronium on 1 nM [3H]NMS binding", "parameters": "host or cells: CHO cells, stably transfected; membranes", "source_text": "as §1"}, "M2 muscarinic receptor": {"target": "T3, M2 muscarinic receptor (Homo sapiens, UniProt P08172)", "T3 sequence (P08172 1-466)": "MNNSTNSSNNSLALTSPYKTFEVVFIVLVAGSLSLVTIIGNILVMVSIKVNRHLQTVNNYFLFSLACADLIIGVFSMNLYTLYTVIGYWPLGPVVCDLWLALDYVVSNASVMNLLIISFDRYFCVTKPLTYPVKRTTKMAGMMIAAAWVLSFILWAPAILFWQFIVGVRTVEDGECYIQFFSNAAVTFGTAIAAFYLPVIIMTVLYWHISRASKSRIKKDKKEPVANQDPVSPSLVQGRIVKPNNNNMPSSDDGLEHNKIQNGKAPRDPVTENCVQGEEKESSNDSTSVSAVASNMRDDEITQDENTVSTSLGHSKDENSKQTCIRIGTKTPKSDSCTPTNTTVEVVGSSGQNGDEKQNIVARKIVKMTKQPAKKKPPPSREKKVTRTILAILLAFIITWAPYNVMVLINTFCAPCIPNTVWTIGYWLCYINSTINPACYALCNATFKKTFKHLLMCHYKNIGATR", "experiment": "Effect of rapacuronium on 1 nM [3H]NMS binding", "parameters": "host or cells: CHO cells, stably transfected; membrane preparation", "source_text": "as §1"}, "M3 muscarinic receptor [3]": {"target": "T4, M3 muscarinic receptor (Homo sapiens, UniProt P20309)", "T4 construct": "host or cells: CHO cells, stably transfected; membranes", "T4 sequence (P20309 whole entry)": "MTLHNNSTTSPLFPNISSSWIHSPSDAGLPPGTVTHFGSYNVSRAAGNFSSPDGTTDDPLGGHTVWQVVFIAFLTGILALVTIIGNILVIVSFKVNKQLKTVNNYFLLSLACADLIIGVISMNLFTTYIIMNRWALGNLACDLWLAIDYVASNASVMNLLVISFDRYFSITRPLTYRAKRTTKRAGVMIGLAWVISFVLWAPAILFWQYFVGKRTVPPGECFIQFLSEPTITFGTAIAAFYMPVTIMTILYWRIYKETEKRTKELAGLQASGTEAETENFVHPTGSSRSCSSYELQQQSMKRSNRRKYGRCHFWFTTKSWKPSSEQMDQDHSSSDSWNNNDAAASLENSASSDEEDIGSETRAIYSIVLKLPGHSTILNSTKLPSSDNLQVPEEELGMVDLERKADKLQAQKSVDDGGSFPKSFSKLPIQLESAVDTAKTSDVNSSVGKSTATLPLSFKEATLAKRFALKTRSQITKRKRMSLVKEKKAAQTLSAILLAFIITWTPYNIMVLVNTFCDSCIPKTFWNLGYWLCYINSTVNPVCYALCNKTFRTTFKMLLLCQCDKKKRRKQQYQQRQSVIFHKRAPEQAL", "experiment": "[3H]ACh saturation binding", "source_text": "(§2) BMAX, maximum binding capacity; KD, equilibrium dissociation constant."}, "M1 muscarinic receptor [4]": {"target": "T5, M1 muscarinic receptor (Homo sapiens, UniProt P11229)", "T5 construct": "host or cells: CHO cells, stably transfected; membrane preparation", "T5 sequence (P11229 1-460)": "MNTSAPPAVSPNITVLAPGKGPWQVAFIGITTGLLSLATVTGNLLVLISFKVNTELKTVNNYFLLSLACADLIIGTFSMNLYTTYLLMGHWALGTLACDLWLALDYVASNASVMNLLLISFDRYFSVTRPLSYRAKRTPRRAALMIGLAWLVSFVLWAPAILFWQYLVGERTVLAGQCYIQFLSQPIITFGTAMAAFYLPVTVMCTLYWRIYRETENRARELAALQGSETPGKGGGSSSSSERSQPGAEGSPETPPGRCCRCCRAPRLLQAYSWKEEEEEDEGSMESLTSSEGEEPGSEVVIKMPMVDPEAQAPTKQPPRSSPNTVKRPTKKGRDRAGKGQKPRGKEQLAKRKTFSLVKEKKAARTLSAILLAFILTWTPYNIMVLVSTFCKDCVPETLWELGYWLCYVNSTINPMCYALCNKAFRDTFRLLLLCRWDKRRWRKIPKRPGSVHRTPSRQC", "experiment": "[3H]ACh saturation binding", "source_text": "as §2"}, "M3 muscarinic receptor [5]": {"target": "T4, M3 muscarinic receptor", "experiment": "Effect of rapacuronium on 1 nM [3H]NMS binding", "source_text": "as §1"}, "M1 muscarinic receptor [6]": {"target": "T5, M1 muscarinic receptor", "experiment": "Effect of rapacuronium on 1 nM [3H]NMS binding", "source_text": "as §1"}, "M1 muscarinic receptor [7]": {"target": "T5, M1 muscarinic receptor", "experiment": "Effect of rapacuronium on low-affinity ACh binding ([3H]NMS + GTPγS + ACh)", "source_text": "Data are expressed as percent of specific binding in the absence of rapacuronium. […] Data are means ± SE from 3 independent experiments performed in quadruplicates. Curves are fits of Eq. 3 (circles) and Eq. 4 (squares and triangles) to data prior to normalization."}, "[8]": {"details": "read-out: pKA of rapacuronium (converted)"}, "[9]": {"details": "M1, negative value = negative cooperativity"}},
  "note": "Marks after values point to notes of the source that are not given here.",
  "data": [
    {"compound": "C=CC[N+]1([C@H]2C[C@H]3[C@@H]4CC[C@H]5C[C@H](OC(C)=O)[C@@H](N6CCCCC6)C[C@]5(C)[C@H]4CC[C@]3(C)[C@H]2OC(=O)CC)CCCCC1", "note": "[rapacuronium]", "values": [
      {"measurement": "f2, fraction of sites with faster dissociation", "setting": "M4 muscarinic receptor [1]", "value": "6.0 ± 2.0", "unit": "%"},
      {"measurement": "koff1 of [^3H]NMS dissociation", "setting": "M4 muscarinic receptor [1]", "value": "0.017 ± 0.001* min^-1"},
      {"measurement": "koff2 of [^3H]NMS dissociation", "setting": "M4 muscarinic receptor [1]", "value": "0.75 ± 0.11", "unit": "min⁻¹"},
      {"measurement": "pα, cooperativity with [^3H]NMS", "setting": "M4 muscarinic receptor [2]; M4, negative value = negative cooperativity", "value": "-1.40 ± 0.04"},
      {"measurement": "Kd", "setting": "M4 muscarinic receptor [2]; [8]", "value": 3.8, "unit": "µM"},
      {"measurement": "decrease in affinity of [^3H]NMS (cooperativity)", "setting": "M5 muscarinic receptor; M5", "value": 35, "unit": "fold"},
      {"measurement": "pα, cooperativity with [^3H]NMS", "setting": "M5 muscarinic receptor; M5, negative value = negative cooperativity", "value": "-1.54 ± 0.05"},
      {"measurement": "Kd", "setting": "M5 muscarinic receptor; [8]", "value": 10.7, "unit": "µM"},
      {"measurement": "decrease in affinity of [^3H]NMS (cooperativity)", "setting": "M2 muscarinic receptor; M2", "value": 6.8, "unit": "fold"},
      {"measurement": "pα, cooperativity with [^3H]NMS", "setting": "M2 muscarinic receptor; M2, negative value = negative cooperativity", "value": "-0.83 ± 0.07"},
      {"measurement": "Kd", "setting": "M2 muscarinic receptor; [8]", "value": 2570, "unit": "nM"},
      {"measurement": "BMAX of [^3H]ACh", "setting": "M3 muscarinic receptor [3]; + 10 μM rapacuronium", "value": "0.40 ± 0.04 fmol/μg of protein"},
      {"measurement": "BMAX of [^3H]ACh", "setting": "M3 muscarinic receptor [3]; + 100 μM rapacuronium", "value": "0.37 ± 0.05 fmol/μg of protein"},
      {"measurement": "BMAX of [^3H]ACh", "setting": "M1 muscarinic receptor [4]; + 10 μM rapacuronium", "value": "0.33 ± 0.05 fmol/μg of protein"},
      {"measurement": "BMAX of [^3H]ACh", "setting": "M1 muscarinic receptor [4]; + 100 μM rapacuronium", "value": "0.32 ± 0.05 fmol/μg of protein"},
      {"measurement": "pα, cooperativity with [^3H]NMS", "setting": "M3 muscarinic receptor [5]; M3, negative value = negative cooperativity", "value": "-1.11 ± 0.05"},
      {"measurement": "Kd", "setting": "M3 muscarinic receptor [5]; [8]", "value": 17.8, "unit": "µM"},
      {"measurement": "pα, cooperativity with [^3H]NMS", "setting": "M1 muscarinic receptor [6]; [9]", "value": "-1.08 ± 0.05"},
      {"measurement": "Kd", "setting": "M1 muscarinic receptor [6]; [8]", "value": 4.27, "unit": "µM"},
      {"measurement": "Kd", "setting": "M1 muscarinic receptor [7]", "value": 4.68, "unit": "µM"},
      {"measurement": "pβ, cooperativity with ACh low affinity binding", "setting": "M1 muscarinic receptor [7]; [9]", "value": "-1.32 ± 0.06"}
    ]}
  ]
}
